Test results as given in patent US10813913B2, “Small molecules that mimic or antagonize actions of granulocyte colony-stimulating-factor (G-CSF)” (UNIVERSITY OF SOUTH FLORIDA, priority 2016, dated 2020).
Where “and” joins values, the source holds several entries; their conditions need not be identical. Equal entries are not always repeated. Entries after “also recorded” stand apart in the source; their conditions may differ.

T1: G-CSF receptor expressed on human monocytes (Homo sapiens, UniProt Q99062)
T1 construct: Both cell lines are known to express the G-CSF-R; host or cells: THP-1 (human monocytic cell line), intact cells
T1 sequence (Q99062 25-836): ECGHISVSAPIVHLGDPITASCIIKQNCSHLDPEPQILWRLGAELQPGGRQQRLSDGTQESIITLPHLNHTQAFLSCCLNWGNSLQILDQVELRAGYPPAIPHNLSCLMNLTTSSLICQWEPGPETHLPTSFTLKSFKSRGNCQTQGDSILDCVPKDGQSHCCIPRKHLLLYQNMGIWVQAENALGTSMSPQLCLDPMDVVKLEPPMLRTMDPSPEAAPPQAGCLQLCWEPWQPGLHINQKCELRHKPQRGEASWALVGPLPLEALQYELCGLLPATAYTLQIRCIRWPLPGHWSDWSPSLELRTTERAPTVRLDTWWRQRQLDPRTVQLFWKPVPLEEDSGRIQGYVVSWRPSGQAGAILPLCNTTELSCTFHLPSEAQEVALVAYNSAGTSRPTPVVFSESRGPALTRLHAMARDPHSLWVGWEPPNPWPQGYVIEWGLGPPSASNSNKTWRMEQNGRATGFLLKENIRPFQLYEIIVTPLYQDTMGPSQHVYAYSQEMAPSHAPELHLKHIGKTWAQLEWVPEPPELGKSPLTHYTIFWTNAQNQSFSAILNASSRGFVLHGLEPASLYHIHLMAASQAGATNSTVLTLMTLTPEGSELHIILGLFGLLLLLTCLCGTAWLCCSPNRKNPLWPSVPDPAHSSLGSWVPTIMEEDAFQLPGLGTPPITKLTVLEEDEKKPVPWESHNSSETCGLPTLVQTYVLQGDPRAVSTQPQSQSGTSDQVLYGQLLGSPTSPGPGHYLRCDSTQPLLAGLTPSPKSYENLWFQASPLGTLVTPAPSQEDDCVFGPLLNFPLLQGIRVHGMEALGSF

T2: G-CSF receptor on neuronal (SH-SY5Y) cells (Homo sapiens, UniProt Q99062)
T2 construct: Both cell lines are known to express the G-CSF-R; host or cells: SH-SY5Y (human neuroblastoma cell line, adherent cells), intact cells
T2 sequence (Q99062 25-836): T1 sequence (Q99062 25-836)

T3: G-CSF receptor on monocytic (THP-1) cells (Homo sapiens, UniProt Q99062)
T3 construct: Both cell lines are known to express the G-CSF-R; host or cells: THP-1 (human monocytic cell line), intact cells
T3 sequence (Q99062 25-836): T1 sequence (Q99062 25-836)

B1: [^125I]-G-CSF: radio-labeled G-CSF (specific activity 46.55 TBq/mmol) purchased from Perkin Elmer (protein)
chain: TPLGPASSLPQSFLLKCLEQVRKIQGDGAALQEKLVSECATYKLCHPEELVLLGHSLGIPWAPLSSCPSQALQLAGCLSQLHSGLFLYQGLLQALEGISPELGPTLDTLQLDVADFATTIWQQMEELGMAPALQPTQGAMPAFASAFQRRAGGVLVASHLQSFLEVSYRVLRHLAQP
modifications: 125I radiolabel (specific activity 46.55 TBq/mmol); labelled residue not stated

Experiments:
[1] = tested on: PKCδVIII and Bcl2 expressed in THP-1 monocytic cells; test: Western blot of PKCδVIII and Bcl2 in THP-1 monocytic cells; type: cell-based, human; settings: for effect on G-CSF-induced Bcl2 expression / effect on G-CSF-induced PKCδVIII expression: THP-1, co-incubation with G-CSF 100 ng/mL; for effect on G-CSF-induced Bcl2 expression / effect on G-CSF-induced PKCδVIII expression / Bcl2 protein expression / PKCδVIII protein expression: 24 h; for Bcl2 protein expression / PKCδVIII protein expression: THP-1, compound alone, three concentrations; for agonist/antagonist profile at the G-CSF receptor: monocytic cell line (THP-1)
Method: (§1) In addition, a set of flasks were co-incubated with the combination of G-CSF and 3 concentrations of test drug. Whole cell lysates ([…]) were separated on 10% polyacrylamide gel electrophoresis-SDS (PAGE-SDS). Proteins were electrophoretically transferred to nitrocellulose membranes, blocked with 5% nonfat milk prepared on Tris buffered saline containing 0.1% Tween 20, washed and incubated with a polyclonal antibody against either Bcl2 (Cell Signaling, Danvers, Mass.) or PKCδVIII-specific polyclonal antibody (Jiang, K., et al. Biochemistry 2008, 47, 787-797). The house keeping gene GAPDH was used as an internal standard. Following incubation with anti-rabbit IgG-HRP, enhanced chemiluminesence (Pierce™, Thermo Scientific, Walthahm, Mass.) was used for detection and the gels were analyzed using UN-SCAN-IT™ software (Silk Scientific, Inc., Orem, Utah).
(§2) Statistical analysis. Densitometric results from Western blots were analyzed with two-tailed t-tests when only two groups were compared. In other analyses where 3 groups were compared, one-way ANOVA followed by t-tests with Dunnett's corrections for multiple comparisons was utilized. All data was presented as mean±SEM. All statistical analysis of data was done via PRISM4 or PRISM5 statistical analysis software (GraphPad Prism, La Jolla, Calif.). Neurohistologic analyses are performed using ANOVA. All comparisons were considered significant at level of P<0.05.

[2] = tested on: PKCδVIII and Bcl2 expressed in SH-SY5Y neuronal cells; test: Western blot of PKCδVIII and Bcl2 in SH-SY5Y neuronal cells; type: cell-based, human; settings: for effect on G-CSF-induced Bcl2 expression / effect on G-CSF-induced PKCδVIII expression / Bcl2 protein expression / PKCδVIII protein expression: SH-SY5Y, 24 h; for effect on G-CSF-induced Bcl2 expression / effect on G-CSF-induced PKCδVIII expression: co-incubation with G-CSF 100 ng/mL; for Bcl2 protein expression / PKCδVIII protein expression: compound alone, three concentrations; for agonist/antagonist profile at the G-CSF receptor: neuronal cell line (SH-SY5Y)
Method: as §1, with “THP-1 cells or SH-SY5Y cells 3×10^6 cells in 5 mL media in a 25 cm^2 flask were treated with 100 ng/mL G-CSF or three different concentrations of the test drug for 24 h. In addition,” for “In addition,”
as §2

[3] = target: T1, G-CSF receptor expressed on human monocytes; test: Competition/displacement of [125I]-G-CSF from its receptor on monocytes; type: binding; settings: monocytic cells
Method: Cells, prepared as described above, were incubated in 180 μL of binding medium containing 0.2% BSA, 5 mM MgSO4 and 50 mM Hepes, pH 7.2 at a concentration of 1.5×10^7 cells/mL and the appropriate concentration of [^125I]-G-CSF. This was followed by addition of increasing concentrations of each study compound (10 to 3000 nM). After 2 hrs of incubation, the amount of bound and free [^125I]-G-CSF was determined, as described above. […] Each concentration was analyzed in triplicate and experiments were repeated three times. These experiments were conducted in human monocytic and neuronal cell lines.
Displacement studies were then conducted for each of the 10 compounds. […] Compounds 6 and 10, which displaced greater than 75% of the ^125I-G-CSF, were further studied for their capacity to mimic or block the intracellular signaling triggered by the natural ligand.

[4] = target: T2, G-CSF receptor on neuronal (SH-SY5Y) cells; test: Saturation binding of [125I]-G-CSF to its receptor on SH-SY5Y cells; settings: [125I]-G-CSF specific binding
Description: (§3) Two human cell lines were chosen for cell culture studies. One was a human monocyte cell line that is representative of the peripheral immune system, THP-1, which grows in suspension. The other cell line was a human neuroblastoma cell line (SH-SY5Y) which is a mixed cell line although only adherent cells were utilized (Xie, H. R., et al. Chin. Med. J. (Engl) 2010, 123, 1086-92). Both cell lines are known to express the G-CSF-R. Both cell lines were purchased from ATCC (Manassas, Va.). THP-1 cells were cultured in RPMI-1640 medium supplemented with 10% fetal bovine serum (FBS) plus 1% penicillin-streptomycin (ATCC, Manassas, Va.) in a humidified atmosphere of 5% CO2 at 37° C. […]
(§4) Binding of [^125I]-G-CSF was measured using previously described method (Kondo, S., et al. Eur. J. Haematol. 1991, 46, 223-30) with some modifications (Pennington, A., et al. Alzheimer's Disease and Parkinsonism 2013, 3, 121). […] Nonspecific binding of [^125I]-G-CSF was measured by incubations in the presence of a 100-fold molar excess of unlabeled G-CSF. […] Bound and free ligand activities were counted after cutting tubes in two pieces and placing the tips and tops, respectively into separate scintillation vials. […] The specific binding was determined from the amount of bound [^125I]-G-CSF blocked by competition with excess unlabeled G-CSF. […]

[5] = target: T3, G-CSF receptor on monocytic (THP-1) cells; test: Saturation binding of [125I]-G-CSF to its receptor on THP-1 cells; settings: [125I]-G-CSF specific binding
Description: as §3, §4

Molecule | effect on G-CSF-induced Bcl2 expression [1] | effect on G-CSF-induced PKCδVIII expression [1] | Bcl2 protein expression [1] | PKCδVIII protein expression [1] | agonist/antagonist profile at the G-CSF receptor [1] | effect on G-CSF-induced Bcl2 expression [2] | effect on G-CSF-induced PKCδVIII expression [2] | Bcl2 protein expression [2] | PKCδVIII protein expression [2] | agonist/antagonist profile at the G-CSF receptor [2] | IC50 [3] [nM] | Bmax [4] [pM] | Hill Coefficient [4] | Bmax [5] [pM] | Hill Coefficient [5]
NC1=Nc2nc3ccccc3n2C(c2c[nH]nc2-c2cccc([N+](=O)[O-])c2)N1 (centres unmarked) [Compound 10, 4-[3-(3-nitrophenyl)-1H-pyrazol-4-yl]-3,4-dihydro[1,3,5]triazino[1,2-a]-benzimidazol-2-amine] | blocking the effects of G-CSF on Bcl2 expression; also recorded: at the lowest concentration antagonized the effects of G-CSF | did not antagonize the effects on PKCδVIII protein expression; also recorded: at the lowest concentration antagonized the effects of G-CSF | significantly elevating expression of both Bcl2 and PKCδVIII | significantly elevating expression of both Bcl2 and PKCδVIII | mixed agonist/antagonist | did not block the actions of G-CSF | did not block the actions of G-CSF | increased expression of both PKCδVIII and Bcl2 protein to levels equivalent to G-CSF alone | increased expression of both PKCδVIII and Bcl2 protein to levels equivalent to G-CSF alone | appear to act as agonists at the G-CSF receptor; also recorded: appeared to function as a G-CSF agonist | 2.3 | – | – | – | –
COc1ccc2[nH]cc(C3NC(N)=Nc4nc5ccccc5n43)c2c1 (centres unmarked) [Compound 6, 4-(5-methoxy-1H-indol-3-yl)-3,4-dihydro-[1,3,5]-triazino-[1,2a]benzimidazol-2-amine] | blocked the increase in Bcl2 and PKCδVIII protein expression | blocked the increase in Bcl2 and PKCδVIII protein expression | increased expression of Bcl2 | but not PKCδVIII at all 3 concentrations | mixed agonist/antagonist | did not change the expression of either Bcl2 or PKCδVIII | did not change the expression of either Bcl2 or PKCδVIII | significantly increased Bcl2 protein expression at the low and intermediate, but not the high concentration; also recorded: at the highest concentration increases PKCδVIII without changing Bcl2 expression | stimulated PKCδVIII protein expression to levels equivalent to G-CSF alone; also recorded: at the highest concentration increases PKCδVIII | did not act as an antagonist of G-CSF action; also recorded: appear to act as agonists at the G-CSF receptor | 13.7 | – | – | – | –
B1 | – | – | – | – | – | – | – | – | – | – | – | 4826 | 2.7 and 2.71 | 901 | 1.19
